Source: ChEMBL document CHEMBL5696442, “Discovery of type II inhibitors of TGFβ-activated kinase 1 (TAK1) and mitogen-activated protein kinase kinase kinase kinase 2 (MAP4K2)” (J Med Chem, 2015)
Calls of active or inactive are those of the source. The calls are words filed in the database; no cut-off is given here.

Experiments:
[1] = molecular target: T1, Serine/threonine-protein kinase D3 (Homo sapiens) (UniProt O94806); experiment: Inhibition of PRKD3 (unknown origin) at 10 uM by Ambit Kinomescan binding assay
T1 sequence (whole entry): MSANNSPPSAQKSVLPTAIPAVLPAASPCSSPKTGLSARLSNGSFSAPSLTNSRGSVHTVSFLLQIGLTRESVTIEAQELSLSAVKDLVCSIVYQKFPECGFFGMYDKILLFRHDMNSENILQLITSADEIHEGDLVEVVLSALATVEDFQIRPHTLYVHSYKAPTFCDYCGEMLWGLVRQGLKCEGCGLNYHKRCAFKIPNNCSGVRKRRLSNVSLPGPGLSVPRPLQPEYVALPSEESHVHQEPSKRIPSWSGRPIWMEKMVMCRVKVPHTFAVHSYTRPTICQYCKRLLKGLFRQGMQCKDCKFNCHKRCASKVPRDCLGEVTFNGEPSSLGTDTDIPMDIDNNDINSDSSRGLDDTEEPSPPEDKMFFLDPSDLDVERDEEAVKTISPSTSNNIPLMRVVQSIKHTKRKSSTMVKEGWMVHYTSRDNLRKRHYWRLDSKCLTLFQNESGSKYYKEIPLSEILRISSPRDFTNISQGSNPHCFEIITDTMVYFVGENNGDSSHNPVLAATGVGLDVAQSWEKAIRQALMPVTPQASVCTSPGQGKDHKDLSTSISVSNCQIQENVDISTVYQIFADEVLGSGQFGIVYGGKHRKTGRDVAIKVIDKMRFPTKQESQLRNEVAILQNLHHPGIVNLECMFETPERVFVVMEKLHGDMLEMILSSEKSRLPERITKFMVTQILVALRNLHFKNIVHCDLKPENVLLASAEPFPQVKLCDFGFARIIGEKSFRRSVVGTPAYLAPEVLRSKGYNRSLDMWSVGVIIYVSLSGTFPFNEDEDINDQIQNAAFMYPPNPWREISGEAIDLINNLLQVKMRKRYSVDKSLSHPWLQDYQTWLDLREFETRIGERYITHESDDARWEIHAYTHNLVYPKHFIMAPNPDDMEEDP

[2] = molecular target: T2, Serine/threonine-protein kinase Nek1 (Homo sapiens) (UniProt Q96PY6); experiment: Inhibition of NEK1 Lys2 labeling site in human A-375 cells at 0.05 uM by KiNativ Profiling analysis relative to control; format: cell-based
T2 sequence (whole entry): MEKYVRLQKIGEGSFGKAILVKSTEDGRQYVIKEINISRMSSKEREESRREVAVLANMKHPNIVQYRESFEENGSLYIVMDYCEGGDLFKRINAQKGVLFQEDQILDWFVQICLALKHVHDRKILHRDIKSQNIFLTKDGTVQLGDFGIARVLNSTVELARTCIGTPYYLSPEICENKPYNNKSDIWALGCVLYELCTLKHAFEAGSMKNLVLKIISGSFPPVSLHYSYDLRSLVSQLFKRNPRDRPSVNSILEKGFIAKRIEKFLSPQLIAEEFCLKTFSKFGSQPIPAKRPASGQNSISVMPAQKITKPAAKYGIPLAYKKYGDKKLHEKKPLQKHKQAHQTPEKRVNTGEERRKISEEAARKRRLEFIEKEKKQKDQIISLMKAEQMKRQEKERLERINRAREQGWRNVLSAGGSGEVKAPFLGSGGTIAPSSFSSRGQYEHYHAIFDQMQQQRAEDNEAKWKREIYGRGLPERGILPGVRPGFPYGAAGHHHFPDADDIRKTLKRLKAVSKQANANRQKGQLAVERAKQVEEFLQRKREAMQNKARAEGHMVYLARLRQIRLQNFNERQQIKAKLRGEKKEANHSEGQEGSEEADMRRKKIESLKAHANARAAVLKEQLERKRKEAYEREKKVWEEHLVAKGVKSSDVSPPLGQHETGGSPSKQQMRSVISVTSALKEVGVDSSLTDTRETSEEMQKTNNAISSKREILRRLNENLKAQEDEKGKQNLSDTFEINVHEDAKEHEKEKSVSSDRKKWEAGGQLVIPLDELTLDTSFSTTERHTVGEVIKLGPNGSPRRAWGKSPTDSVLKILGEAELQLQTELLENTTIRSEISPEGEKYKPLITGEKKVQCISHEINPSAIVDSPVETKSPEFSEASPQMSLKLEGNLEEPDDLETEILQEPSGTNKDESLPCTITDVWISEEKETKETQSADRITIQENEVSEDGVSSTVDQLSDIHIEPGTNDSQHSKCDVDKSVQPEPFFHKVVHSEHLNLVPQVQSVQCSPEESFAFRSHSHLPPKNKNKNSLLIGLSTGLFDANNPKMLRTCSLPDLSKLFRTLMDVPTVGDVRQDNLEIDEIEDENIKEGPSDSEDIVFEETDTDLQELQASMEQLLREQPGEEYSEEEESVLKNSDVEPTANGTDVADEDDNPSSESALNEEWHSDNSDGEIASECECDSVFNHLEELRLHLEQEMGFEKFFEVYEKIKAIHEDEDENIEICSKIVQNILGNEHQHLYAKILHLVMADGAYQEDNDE

[3] = molecular target: Mitogen-activated protein kinase kinase kinase kinase 4 (Homo sapiens, UniProt O95819); experiment: Inhibition of ZC1/HGK K2 labeling site in human Huh-7 cells at 1 uM by KiNativ Profiling analysis relative to control; format: cell-based
Mitogen-activated protein kinase kinase kinase kinase 4, sequence (O95819 2-1239 limits assumed): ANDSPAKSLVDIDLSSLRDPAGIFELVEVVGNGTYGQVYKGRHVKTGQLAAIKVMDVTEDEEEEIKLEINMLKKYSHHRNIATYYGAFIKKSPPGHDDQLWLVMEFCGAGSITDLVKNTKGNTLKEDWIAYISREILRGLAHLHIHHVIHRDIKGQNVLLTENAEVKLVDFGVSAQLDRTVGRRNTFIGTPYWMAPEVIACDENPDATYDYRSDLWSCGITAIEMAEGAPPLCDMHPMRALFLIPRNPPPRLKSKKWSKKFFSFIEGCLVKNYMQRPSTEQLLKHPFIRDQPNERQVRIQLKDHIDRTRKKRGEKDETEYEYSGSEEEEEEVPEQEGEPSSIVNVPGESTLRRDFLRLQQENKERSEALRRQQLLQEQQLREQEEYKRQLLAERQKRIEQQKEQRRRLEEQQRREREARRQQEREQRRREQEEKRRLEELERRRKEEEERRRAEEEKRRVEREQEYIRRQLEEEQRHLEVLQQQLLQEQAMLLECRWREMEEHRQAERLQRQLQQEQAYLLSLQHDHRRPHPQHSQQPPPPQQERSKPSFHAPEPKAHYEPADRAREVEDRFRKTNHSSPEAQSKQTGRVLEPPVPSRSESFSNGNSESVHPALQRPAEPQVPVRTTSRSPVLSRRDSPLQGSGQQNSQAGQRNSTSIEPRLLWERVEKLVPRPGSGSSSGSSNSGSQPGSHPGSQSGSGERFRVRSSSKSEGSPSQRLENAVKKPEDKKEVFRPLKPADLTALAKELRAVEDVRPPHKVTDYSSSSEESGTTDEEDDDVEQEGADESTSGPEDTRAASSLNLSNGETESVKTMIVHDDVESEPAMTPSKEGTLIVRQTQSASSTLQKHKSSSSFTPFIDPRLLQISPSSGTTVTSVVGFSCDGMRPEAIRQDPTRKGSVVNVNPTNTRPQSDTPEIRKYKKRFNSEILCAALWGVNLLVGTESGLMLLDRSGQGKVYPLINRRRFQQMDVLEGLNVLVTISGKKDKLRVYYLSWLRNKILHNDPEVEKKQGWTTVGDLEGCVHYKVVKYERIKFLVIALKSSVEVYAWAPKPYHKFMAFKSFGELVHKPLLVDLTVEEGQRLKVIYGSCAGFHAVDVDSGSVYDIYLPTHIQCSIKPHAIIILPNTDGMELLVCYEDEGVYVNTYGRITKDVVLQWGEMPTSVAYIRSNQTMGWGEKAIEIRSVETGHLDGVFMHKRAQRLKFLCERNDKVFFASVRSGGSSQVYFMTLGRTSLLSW

[4] = molecular target: T3, Serine/threonine-protein kinase Chk1 (Homo sapiens) (UniProt O14757); experiment: Inhibition of CHK1 in human Huh-7 cells at 10 uM by KiNativ Profiling analysis relative to control; format: cell-based
T3 sequence (whole entry): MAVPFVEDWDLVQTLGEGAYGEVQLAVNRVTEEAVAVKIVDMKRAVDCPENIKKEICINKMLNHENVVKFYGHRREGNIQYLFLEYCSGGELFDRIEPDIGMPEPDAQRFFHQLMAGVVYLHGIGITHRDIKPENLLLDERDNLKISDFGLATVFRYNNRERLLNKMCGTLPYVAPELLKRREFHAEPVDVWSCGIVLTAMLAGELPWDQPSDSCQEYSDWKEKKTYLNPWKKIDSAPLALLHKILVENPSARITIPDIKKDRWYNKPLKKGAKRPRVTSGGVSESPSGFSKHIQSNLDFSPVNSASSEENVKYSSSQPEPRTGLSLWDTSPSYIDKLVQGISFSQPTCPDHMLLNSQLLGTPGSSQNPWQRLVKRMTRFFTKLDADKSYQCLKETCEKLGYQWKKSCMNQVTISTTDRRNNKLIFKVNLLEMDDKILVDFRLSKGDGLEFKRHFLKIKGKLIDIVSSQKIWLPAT

[5] = molecular target: Serine/threonine-protein kinase Nek4 (Homo sapiens) (UniProt P51957); experiment: Inhibition of NEK4 Lys2 labeling site in human A-375 cells at 0.5 uM by KiNativ Profiling analysis relative to control; format: cell-based
Serine/threonine-protein kinase Nek4 (Homo sapiens), sequence (P51957 whole entry, looked up): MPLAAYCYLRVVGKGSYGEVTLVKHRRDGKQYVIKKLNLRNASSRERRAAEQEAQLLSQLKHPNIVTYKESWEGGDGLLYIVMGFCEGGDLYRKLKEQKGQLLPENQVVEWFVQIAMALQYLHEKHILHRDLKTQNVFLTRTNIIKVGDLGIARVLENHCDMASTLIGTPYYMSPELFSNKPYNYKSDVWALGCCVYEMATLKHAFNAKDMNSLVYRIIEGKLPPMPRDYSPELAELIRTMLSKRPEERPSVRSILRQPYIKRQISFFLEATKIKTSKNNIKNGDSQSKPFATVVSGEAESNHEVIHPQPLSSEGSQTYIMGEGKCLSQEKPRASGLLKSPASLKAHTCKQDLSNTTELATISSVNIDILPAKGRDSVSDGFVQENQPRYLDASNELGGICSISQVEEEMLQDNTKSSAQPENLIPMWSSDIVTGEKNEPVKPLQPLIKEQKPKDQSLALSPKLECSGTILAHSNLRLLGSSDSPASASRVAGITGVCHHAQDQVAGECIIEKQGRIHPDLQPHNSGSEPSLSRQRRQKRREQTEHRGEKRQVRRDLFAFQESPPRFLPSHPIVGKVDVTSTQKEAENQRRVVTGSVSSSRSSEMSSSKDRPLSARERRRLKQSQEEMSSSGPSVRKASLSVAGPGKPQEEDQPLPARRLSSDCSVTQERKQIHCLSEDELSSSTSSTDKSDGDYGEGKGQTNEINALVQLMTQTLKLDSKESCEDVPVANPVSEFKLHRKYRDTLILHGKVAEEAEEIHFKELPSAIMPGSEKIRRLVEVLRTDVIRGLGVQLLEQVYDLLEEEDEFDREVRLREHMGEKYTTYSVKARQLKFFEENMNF

[6] = molecular target: Serine/threonine-protein kinase 26 (Homo sapiens) (UniProt Q9P289); experiment: Inhibition of MST4 Lys2 labeling site in human Huh-7 cells at 1 uM by KiNativ Profiling analysis relative to control; format: cell-based
Serine/threonine-protein kinase 26 (Homo sapiens), sequence (Q9P289 2-416 limits assumed): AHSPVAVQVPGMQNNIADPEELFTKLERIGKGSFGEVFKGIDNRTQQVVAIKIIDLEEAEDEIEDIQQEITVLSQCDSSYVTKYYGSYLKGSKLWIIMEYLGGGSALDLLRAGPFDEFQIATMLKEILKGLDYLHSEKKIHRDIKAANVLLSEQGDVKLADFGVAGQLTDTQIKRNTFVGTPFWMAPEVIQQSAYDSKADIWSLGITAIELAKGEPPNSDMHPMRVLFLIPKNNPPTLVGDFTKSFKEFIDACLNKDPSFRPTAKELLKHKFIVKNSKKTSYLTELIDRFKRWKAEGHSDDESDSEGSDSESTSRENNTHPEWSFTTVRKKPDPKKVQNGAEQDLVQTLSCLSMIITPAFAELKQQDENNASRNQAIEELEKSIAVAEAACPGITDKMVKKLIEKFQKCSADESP

[7] = molecular target: Serine/threonine-protein kinase WNK3 (Homo sapiens) (UniProt Q9BYP7); experiment: Inhibition of Wnk3 Lys2 labeling site in human Huh-7 cells at 1 uM by KiNativ Profiling analysis relative to control; format: cell-based
Serine/threonine-protein kinase WNK3 (Homo sapiens), sequence (Q9BYP7 whole entry): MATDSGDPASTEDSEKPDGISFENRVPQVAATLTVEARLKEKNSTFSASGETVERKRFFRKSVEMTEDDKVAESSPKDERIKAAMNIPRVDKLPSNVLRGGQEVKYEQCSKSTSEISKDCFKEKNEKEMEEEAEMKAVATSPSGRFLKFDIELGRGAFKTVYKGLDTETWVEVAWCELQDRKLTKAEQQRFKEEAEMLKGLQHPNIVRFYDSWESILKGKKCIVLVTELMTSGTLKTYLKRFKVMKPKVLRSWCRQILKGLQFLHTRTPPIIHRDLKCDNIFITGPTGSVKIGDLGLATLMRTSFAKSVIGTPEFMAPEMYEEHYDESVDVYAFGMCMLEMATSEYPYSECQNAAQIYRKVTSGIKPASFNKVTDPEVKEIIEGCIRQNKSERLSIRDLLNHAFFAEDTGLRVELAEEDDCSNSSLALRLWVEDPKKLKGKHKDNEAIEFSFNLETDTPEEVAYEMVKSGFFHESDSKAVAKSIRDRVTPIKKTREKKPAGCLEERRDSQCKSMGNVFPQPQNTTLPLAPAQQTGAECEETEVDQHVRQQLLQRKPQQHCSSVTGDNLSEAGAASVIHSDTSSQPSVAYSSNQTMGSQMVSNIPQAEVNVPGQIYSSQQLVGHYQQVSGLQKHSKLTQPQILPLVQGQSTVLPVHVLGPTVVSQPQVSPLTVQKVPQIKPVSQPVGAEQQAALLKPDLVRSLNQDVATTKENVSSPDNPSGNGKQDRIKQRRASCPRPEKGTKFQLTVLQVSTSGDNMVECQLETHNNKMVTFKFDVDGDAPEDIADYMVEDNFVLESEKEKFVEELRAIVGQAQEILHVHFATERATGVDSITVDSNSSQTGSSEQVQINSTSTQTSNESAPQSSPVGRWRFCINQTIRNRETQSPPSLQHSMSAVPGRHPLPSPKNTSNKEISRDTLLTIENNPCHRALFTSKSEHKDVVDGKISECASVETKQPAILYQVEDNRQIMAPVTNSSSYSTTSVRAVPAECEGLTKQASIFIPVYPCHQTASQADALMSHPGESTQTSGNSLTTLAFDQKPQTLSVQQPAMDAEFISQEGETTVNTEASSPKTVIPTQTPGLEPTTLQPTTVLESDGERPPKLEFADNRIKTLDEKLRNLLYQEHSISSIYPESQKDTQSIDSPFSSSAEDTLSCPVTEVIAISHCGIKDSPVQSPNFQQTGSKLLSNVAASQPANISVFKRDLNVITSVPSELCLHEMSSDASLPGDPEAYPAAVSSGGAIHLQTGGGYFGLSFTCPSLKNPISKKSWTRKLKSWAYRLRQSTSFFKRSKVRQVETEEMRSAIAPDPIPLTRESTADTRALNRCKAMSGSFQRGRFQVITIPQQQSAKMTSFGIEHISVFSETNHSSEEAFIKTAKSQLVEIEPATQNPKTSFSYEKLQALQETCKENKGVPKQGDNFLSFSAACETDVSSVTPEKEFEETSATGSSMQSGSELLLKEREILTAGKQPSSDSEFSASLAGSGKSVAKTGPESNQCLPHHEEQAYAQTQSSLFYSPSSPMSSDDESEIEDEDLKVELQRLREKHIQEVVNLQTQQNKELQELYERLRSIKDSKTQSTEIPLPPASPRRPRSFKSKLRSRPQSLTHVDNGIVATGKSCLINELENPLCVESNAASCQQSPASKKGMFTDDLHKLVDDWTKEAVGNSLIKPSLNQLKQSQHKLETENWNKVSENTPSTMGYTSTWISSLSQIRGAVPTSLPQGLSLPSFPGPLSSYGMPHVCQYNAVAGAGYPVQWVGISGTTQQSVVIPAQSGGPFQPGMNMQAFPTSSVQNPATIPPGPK

CCN1CCN(Cc2ccc(NC(=O)c3ccc(C)c(Oc4ccnc5[nH]ccc45)c3)cc2C(F)(F)F)CC1
inhibition [1]: inactive | inhibition [2]: -7.1% | inhibition [3]: 23% | inhibition [4]: 12.3%

CCN1CCN(Cc2ccc(NC(=O)c3ccc(C)c(/C=C/c4cnc5[nH]ccc5c4OC)c3)cc2C(F)(F)F)CC1
inhibition [5]: 8.6%

CNc1cc(Oc2cc(C(=O)Nc3cc(N4CCN(C)CC4)cc(C(F)(F)F)c3)ccc2C)ncn1
inhibition [6]: 25.2% | inhibition [7]: 15.3%
